Data from patent publication US9073854B2, “Aromatic sulfonium salt compound” (ADEKA CORPORATION, priority 2009, dated 2015).

Test: Solubility in polyvinylphenol/tetramethylammonium hydroxide (TMAH) aqueous solution
Format: physicochemical
Details: mass ratio of compound to polyvinylphenol of the saturated solution; polyvinylphenol in 3% TMAH aqueous solution
Protocol: In a screw-top tube were put 0.36 g of polyvinylphenol (S-2P from Maruzen Petrochemical Co., Ltd.; Mw: 5800) and 10.00 g of a 3% TMAH aqueous solution and heated to dissolve. A 2.00 g portion of the resulting solution was put in another screw-top tube, and a small amount of each of compound Nos. 1 and 5 and comparative compound No. 1 (intermediate No. 7 obtained in step 1 of Example 1-7) was added thereto and heated. A visual check was made to see whether the compound dissolved. This operation was repeated until saturation. The saturated solution was allowed to stand one day to make sure that no solid precipitated. The mass ratio of each compound to the polyvinylphenol of the saturated solution was taken as a parameter of solubility.

Solubility (%)	Compound
70%	Cn1c2ccccc2c(=O)c2cc([S+](c3ccc(O)cc3)c3ccc(O)cc3)ccc21 [Compound No. 1]
29%	O=c1c2ccccc2n(Cc2cccc(O)c2)c2ccc([S+](c3ccc(F)cc3)c3ccc(F)cc3)cc12 [Compound No. 5]
< 1%	Cn1c2ccccc2c(=O)c2cc([S+](c3ccc(F)cc3)c3ccc(F)cc3)ccc21 [Comp. Compound No. 1, reference compound]
